Laboratory results: ChEMBL document CHEMBL3044772, “QSAR modeling of some substituted benzimidazole as Angotensin II AT1 receptor antagonist” (Med Chem Res, 2010)

Biological target: T1, Type-1 angiotensin II receptor (Bos taurus, UniProt P25104)
T1 sequence (P25104 whole entry): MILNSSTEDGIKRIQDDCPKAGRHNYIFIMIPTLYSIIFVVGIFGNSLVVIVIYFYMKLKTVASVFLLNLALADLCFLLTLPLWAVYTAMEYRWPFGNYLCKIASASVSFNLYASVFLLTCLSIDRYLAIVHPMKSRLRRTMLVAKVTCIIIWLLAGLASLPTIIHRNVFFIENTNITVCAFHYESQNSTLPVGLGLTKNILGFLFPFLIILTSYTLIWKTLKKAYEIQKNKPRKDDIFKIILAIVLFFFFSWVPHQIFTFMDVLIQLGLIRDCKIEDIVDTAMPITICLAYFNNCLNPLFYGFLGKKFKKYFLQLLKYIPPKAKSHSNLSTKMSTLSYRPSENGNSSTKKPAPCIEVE
Assay: Displacement of [125I]angiotensin 2 from type-1 angiotensin 2 receptor in Bos taurus (bovine) adrenal cortical membrane
Conditions: read-out: IC50

Row | Structure (SMILES) | IC50 [nM]
1 | CCCCc1nc2ccccc2n1Cc1ccc(-c2ccccc2-c2nn[nH]n2)cc1 | 900
2 | CCCCc1nc2ccc(Cl)cc2n1Cc1ccc(-c2ccccc2-c2nn[nH]n2)cc1 | 3100
3 | CCCCc1nc2ccc(C)c(C(=O)OCC)c2n1Cc1ccc(-c2ccccc2-c2nnn[nH]2)cc1 | 910
4 | CCCCc1nc2cc(C)cc(C(=O)O)c2n1Cc1ccc(-c2ccccc2-c2nn[nH]n2)cc1 | 1300
5 | CCCCc1nc2c(C(=O)OC)cccc2n1Cc1ccc(-c2ccccc2-c2nn[nH]n2)cc1 | 7200
6 | CCCCc1nc2ccc(C(=O)O)cc2n1Cc1ccc(-c2ccccc2-c2nn[nH]n2)cc1 | 9000
7 | CCCCc1nc2cccc(C(=O)OC)c2n1Cc1ccc(-c2ccccc2-c2nn[nH]n2)cc1 | 320
8 | CCCCc1nc2cccc(CN(C)C)c2n1Cc1ccc(-c2ccccc2-c2nn[nH]n2)cc1 | 2400
9 | CCCCc1nc2cccc(C(=O)OCC)c2n1Cc1ccc(-c2ccccc2-c2nn[nH]n2)cc1 | 1400
10 | CCCCc1nc2cccc(O)c2n1Cc1ccc(-c2ccccc2-c2nn[nH]n2)cc1 | 1100
11 | CCCCc1nc2cc(C)cc(C(=O)OC)c2n1Cc1ccc(-c2ccccc2-c2nn[nH]n2)cc1 | 870
12 | CCCCc1nc2cccc(COC)c2n1Cc1ccc(-c2ccccc2-c2nn[nH]n2)cc1 | 600
13 | CCCCc1nc2cc(OC)ccc2n1Cc1ccc(-c2ccccc2-c2nn[nH]n2)cc1 | 910
14 | CCCCc1nc2cccc(C)c2n1Cc1ccc(-c2ccccc2-c2nn[nH]n2)cc1 | 330

Now from value to compound:

Row | IC50 [nM] | Structure (SMILES)
15 | 540 | CCCCc1nc2cccc(C(=O)NC(C)C)c2n1Cc1ccc(-c2ccccc2-c2nn[nH]n2)cc1
16 | 1500 | CCCCc1nc2cc(Cl)ccc2n1Cc1ccc(-c2ccccc2-c2nn[nH]n2)cc1
17 | 250 | CCCCc1nc2cccc(CC(=O)OCC)c2n1Cc1ccc(-c2ccccc2-c2nn[nH]n2)cc1
18 | 450 | CCCCc1nc2cccc(CO)c2n1Cc1ccc(-c2ccccc2-c2nn[nH]n2)cc1
19 | 660 | CCCCc1nc2cccc(C(=O)O)c2n1Cc1ccc(-c2ccccc2C(=O)O)cc1
20 | 2800 | CCCCc1nc2cccc(OC)c2n1Cc1ccc(-c2ccccc2-c2nn[nH]n2)cc1
21 | 2600 | CCCCc1nc2cccc(CC(=O)O)c2n1Cc1ccc(-c2ccccc2-c2nn[nH]n2)cc1
22 | 1100 | CCCCc1nc2ccc(OC)cc2n1Cc1ccc(-c2ccccc2-c2nn[nH]n2)cc1
23 | 440 | CCCCc1nc2ccc(C(=O)OC)cc2n1Cc1ccc(-c2ccccc2-c2nn[nH]n2)cc1
24 | 740 | CCCCc1nc2cc(C(=O)OC)ccc2n1Cc1ccc(-c2ccccc2-c2nn[nH]n2)cc1
25 | 340 | CCCCc1nc2ccc(C)c(C(=O)O)c2n1Cc1ccc(-c2ccccc2-c2nn[nH]n2)cc1
26 | 1100 | CCCCc1nc2ccccc2n1Cc1ccc(-c2ccccc2C(=O)O)cc1
27 | 5500 | CCCCc1nc2cc(C(=O)O)ccc2n1Cc1ccc(-c2ccccc2-c2nn[nH]n2)cc1
28 | 3400 | CCCCc1nc2cccc(C(=O)O)c2n1Cc1ccc(-c2ccccc2-c2nnnn2C)cc1
29 | 440 | CCCCc1nc2cc(Cl)cc(C(=O)OC)c2n1Cc1ccc(-c2ccccc2-c2nn[nH]n2)cc1
30 | 1200 | CCCCOC(=O)c1cccc2nc(CCCC)n(Cc3ccc(-c4ccccc4-c4nn[nH]n4)cc3)c12

Same assay, conditions: read-out: pIC50 (converted)

Row | IC50 [nM] | Structure (SMILES)
31 | 2820 | CCCCc1nc2cccc(CC(=O)O)c2n1Cc1ccc(-c2ccccc2-c2nn[nH]n2)cc1
32 | 328 | CCCCc1nc2ccc(C)c(C(=O)O)c2n1Cc1ccc(-c2ccccc2-c2nn[nH]n2)cc1
33 | 110 | CCCCc1nc2ccccc2n1Cc1ccc(-c2ccccc2C(=O)O)cc1
34 | 5620 | CCCCc1nc2cc(C(=O)O)ccc2n1Cc1ccc(-c2ccccc2-c2nn[nH]n2)cc1
35 | 1300 | CCCCOC(=O)c1cccc2nc(CCCC)n(Cc3ccc(-c4ccccc4-c4nn[nH]n4)cc3)c12
